These results are taken from patent US20240066136A1, “MODIFIED PROTEINS AND PROTEIN DEGRADERS” (Cullgen (Shanghai), Inc., priority 2020, published 2024).

pIC50, pKd: −log10 of the molar value. Like-named read-outs stand apart in the source and are kept apart here.

For one assay, the target named is CBP (Homo sapiens (Human), UniProt Q92793). Briefly: Immunoblot of CBP protein in LNCaP cells after compound treatment. The assay is classed as cell-based. The procedure: (§1) Experiments were performed to see if heterobifunctional compounds as described herein could degrade target proteins. Specific exemplary heterobifunctional compounds were characterized in LNCaP and Calu-1 cells. LNCaP cells that express P300/CBP proteins were treated with heterobifunctional compounds disclosed herein (D-2, D-13, or D-7) at indicated concentrations for 8 hours. Cells were collected, lysed and subject to immunoblotting using an antibody specific to P300 or CBP proteins. Vinculin was included as the loading control. DMSO treatment was used as the negative control. […] In addition, LNCaP cells were treated with 500 nM of D-2, or D-13 for indicated period of time. Subsequently, changes in P300 and CBP protein levels were measured by immunoblotting.
(A western blot detects proteins with antibodies after separation by electrophoresis.)

The target in assay [1] is T1, P300 (Homo sapiens (Human), UniProt Q09472). Briefly: Immunoblot of P300 in Calu-1 cells with co-administered proteasome, neddylation or DDB1-ligand competitor. In kind it is cell-based. From the text: The heterobifunctional compound-mediated p300 and CBP degradation was dependent on the ubiquitin-proteasome system and cullin E3 ligase. […] The binding with DDB1 also played a role in the heterobifunctional compounds ability to induce degradation of P300 and CBP proteins.
T1 sequence (Q09472 whole entry): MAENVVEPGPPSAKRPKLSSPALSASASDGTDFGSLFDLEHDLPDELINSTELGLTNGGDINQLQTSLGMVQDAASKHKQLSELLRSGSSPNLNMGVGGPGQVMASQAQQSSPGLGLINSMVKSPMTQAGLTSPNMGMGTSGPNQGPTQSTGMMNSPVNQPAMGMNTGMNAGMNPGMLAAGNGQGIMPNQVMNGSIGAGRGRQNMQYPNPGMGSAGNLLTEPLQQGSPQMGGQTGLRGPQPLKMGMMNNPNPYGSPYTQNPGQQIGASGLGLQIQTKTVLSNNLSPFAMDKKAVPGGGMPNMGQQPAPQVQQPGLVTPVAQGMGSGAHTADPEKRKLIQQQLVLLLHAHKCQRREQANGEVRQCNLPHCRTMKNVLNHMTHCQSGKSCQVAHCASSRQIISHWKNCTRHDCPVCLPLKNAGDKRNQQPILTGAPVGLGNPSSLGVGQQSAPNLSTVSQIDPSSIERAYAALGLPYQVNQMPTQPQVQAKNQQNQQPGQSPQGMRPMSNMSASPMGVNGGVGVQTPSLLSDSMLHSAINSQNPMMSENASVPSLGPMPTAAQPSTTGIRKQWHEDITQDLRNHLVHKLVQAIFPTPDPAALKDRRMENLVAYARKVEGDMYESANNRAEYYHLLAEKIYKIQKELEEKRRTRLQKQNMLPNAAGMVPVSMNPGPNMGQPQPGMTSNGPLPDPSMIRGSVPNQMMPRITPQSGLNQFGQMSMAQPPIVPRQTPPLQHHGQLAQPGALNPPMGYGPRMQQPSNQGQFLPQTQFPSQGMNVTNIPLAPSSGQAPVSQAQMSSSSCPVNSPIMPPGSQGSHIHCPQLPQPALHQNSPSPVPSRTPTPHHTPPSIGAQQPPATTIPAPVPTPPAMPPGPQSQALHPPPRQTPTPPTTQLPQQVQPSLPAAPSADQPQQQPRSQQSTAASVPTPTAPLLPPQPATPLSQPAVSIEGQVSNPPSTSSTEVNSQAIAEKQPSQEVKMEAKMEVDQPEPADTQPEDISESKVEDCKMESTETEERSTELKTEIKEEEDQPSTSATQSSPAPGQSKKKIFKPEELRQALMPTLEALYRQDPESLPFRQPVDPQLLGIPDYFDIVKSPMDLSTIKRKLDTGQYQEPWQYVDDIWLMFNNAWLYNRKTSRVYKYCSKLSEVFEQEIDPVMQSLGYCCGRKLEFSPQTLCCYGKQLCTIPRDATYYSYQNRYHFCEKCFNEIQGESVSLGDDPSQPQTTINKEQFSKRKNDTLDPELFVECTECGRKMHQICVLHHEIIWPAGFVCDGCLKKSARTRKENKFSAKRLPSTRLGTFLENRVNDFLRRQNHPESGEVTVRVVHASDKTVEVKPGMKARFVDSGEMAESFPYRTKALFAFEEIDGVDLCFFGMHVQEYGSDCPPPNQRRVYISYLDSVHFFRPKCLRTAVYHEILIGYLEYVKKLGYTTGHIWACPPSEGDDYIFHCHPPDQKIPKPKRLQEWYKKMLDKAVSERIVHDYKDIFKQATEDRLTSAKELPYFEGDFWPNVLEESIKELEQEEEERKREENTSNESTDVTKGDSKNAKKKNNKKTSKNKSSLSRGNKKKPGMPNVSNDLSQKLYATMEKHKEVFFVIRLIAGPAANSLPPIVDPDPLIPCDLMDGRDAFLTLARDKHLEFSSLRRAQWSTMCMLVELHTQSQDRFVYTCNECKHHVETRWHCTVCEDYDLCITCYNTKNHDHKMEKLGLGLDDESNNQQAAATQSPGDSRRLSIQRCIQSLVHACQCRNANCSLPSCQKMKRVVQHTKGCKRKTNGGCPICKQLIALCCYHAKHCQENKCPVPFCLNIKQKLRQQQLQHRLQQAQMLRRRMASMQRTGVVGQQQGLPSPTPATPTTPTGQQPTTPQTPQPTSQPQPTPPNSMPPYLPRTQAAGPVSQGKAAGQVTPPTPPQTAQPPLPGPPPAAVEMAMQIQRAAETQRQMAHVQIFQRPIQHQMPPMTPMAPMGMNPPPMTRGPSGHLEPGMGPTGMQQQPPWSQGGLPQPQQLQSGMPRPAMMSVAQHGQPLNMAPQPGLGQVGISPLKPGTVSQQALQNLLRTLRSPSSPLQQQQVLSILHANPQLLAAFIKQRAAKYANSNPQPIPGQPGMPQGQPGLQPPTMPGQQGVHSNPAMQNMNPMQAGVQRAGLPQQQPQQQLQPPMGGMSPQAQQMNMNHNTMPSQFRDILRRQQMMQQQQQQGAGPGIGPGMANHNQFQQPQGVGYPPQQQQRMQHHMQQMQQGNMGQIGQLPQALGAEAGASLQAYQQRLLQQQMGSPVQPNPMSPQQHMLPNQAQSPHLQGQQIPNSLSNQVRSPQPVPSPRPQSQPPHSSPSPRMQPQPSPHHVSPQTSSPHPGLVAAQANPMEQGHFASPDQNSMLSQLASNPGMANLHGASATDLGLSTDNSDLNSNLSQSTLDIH

For a further assay, the target named is Human DDB1 (Homo sapiens (Human), UniProt Q16531). As to the kind of experiment: Surface plasmon resonance (SPR) binding assay to immobilized His-DDB1. The settings on record: SPR. The method, boiled down:
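Baculovirus-expressed His-DDB1 (High5 cells) amine-coupled to 11,000–13,000 RU on a CM5 chip; compounds injected in multi-cycle format without regeneration at 25° C in HBS-EP pH 7.4 (120 s association/dissociation). Double-referenced, solvent-corrected data fit to steady-state affinity model for KD.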

Assay [2] addresses T1, P300. Briefly: Immunoblot of P300 protein in LNCaP cells after compound treatment. In kind it is cell-based. Here is the method:
as §1

The next assay deals with CDK4 (Homo sapiens (Human), UniProt P11802). Briefly: Immunoblot of CDK4 protein in Calu-1 cells. In kind it is cell-based. The settings on record: indicated concentrations, 16 hours, immunoblot. The procedure: Additional heterobifunctional compounds were designed and tested for their ability to target and degrade another two target proteins, CDK4 and CDK6. Calu-1 cells that express CDK4/6 proteins were treated with heterobifunctional compounds disclosed herein (D-44 to D-49) at indicated concentrations for 16 hours. Cells were collected, lysed and subject to immunoblotting using an antibody specific to CDK4, CDK6 or phosphorylated Rb proteins. Tubulin was included as the loading control. DMSO treatment was used as the negative control. […] In addition, Calu-1 cells were treated with 1 μM D-48 or D-49 for an indicated period of time. Subsequently, changes in CDK4 and CDK6 protein levels were measured by immunoblotting. […] These experiments highlight the ability of DDB1 binder derived heterobifunctional compounds to degrade multiple different target proteins, including but not limited to epigenetic target proteins, such as CBP and p300, and kinases, such as CDK4 and CDK6.
Chain of CDK4 (P11802 whole entry): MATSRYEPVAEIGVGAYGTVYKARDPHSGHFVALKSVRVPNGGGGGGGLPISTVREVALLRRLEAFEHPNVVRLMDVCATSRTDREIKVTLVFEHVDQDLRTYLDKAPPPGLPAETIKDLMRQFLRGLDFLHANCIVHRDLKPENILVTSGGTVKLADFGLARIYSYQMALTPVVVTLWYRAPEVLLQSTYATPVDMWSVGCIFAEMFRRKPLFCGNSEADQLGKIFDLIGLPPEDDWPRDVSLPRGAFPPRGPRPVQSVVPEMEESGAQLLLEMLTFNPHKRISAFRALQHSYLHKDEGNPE

The subject of another assay is Hs 578T. Briefly: Cell viability assay (CellTiter-Glo). In kind it is cell-based. The settings on record: Homo sapiens, 120 h, 5 days. The procedure: (§2) A variety of cancer cell lines were treated with Palbociclib or selected heterobifunctional compounds for 5 days at indicated concentrations in FIG. 12.
(§3) Cell Culture. LNCaP (clone FGC), Calu-1, MDA-MB-468, MDA-MB-453, NCI-H358, HCC1937, BT-549, HCT116, A375, SK-MEL-28, SK-N-SH, MIA PaCa-2, HS 578T, HCC827, MIA PaCa-2, and other cells were cultured at 37° C. with 5% CO2 in DMEM or RPMI 1640 Medium supplemented with 10% fetal bovine serum. Cells were authenticated using the short tandem repeat (STR) assays. Mycoplasma test results were negative.
(§4) Cell viability assay. Cells were seeded at a density of 5000 cells per well in 96-well assay plates and treated with test compounds following a 11-point 3-fold serial dilution for 3-5 days. Three days later, cell viability was determined using the CellTiter-Glo Assay Kit according to the manufacturer's instructions. The dose-response curves were determined and IC50 values were calculated using the GraphPad Prism software following a nonlinear regression (least squares fit) method.

Another assay has as its system MDAMB-468. Briefly: Cell viability assay (CellTiter-Glo). The assay is classed as cell-based. The settings on record: Homo sapiens, MDA-MB-468, 120 h; MDAMB-468, 5 days. The procedure:
as §2, §3, §4
(In ATP-based viability assays light output follows the ATP content of the culture.)

For a further assay, the system named is SK-MEL-28. Briefly: Cell viability assay (CellTiter-Glo). The assay is classed as cell-based. The settings on record: Homo sapiens, 120 h; SK-MEL-28, 5 days. Here is the method:
as §2, §3, §4

Another assay deals with SK-N-SH. Briefly: Cell viability assay (CellTiter-Glo). The assay is classed as cell-based. The settings on record: Homo sapiens, 120 h, 5 days. Here is the method:
as §2, §3, §4

Another assay has as its system HCC1937. As to the kind of experiment: Cell viability assay (CellTiter-Glo). The assay is classed as cell-based. The settings on record: Homo sapiens, 120 h; HCC1937, 5 days. The procedure: as §2, §3, §4
A further assay concerns NCI-H358. As to the kind of experiment: Cell viability assay (CellTiter-Glo). In kind it is cell-based. The settings on record: Homo sapiens, 120 h; NCI-H358, 5 days. Here is the method: as §2, §3, §4
The next assay has as its system HCC827. As to the kind of experiment: Cell viability assay (CellTiter-Glo). In kind it is cell-based. The settings on record: Homo sapiens, 120 h; HCC827, 5 days. Here is the method:
as §2, §3, §4

The test system of the next assay is BT-549. Briefly: Cell viability assay (CellTiter-Glo). The settings on record: Homo sapiens, 120 h; BT-549, 5 days. In kind it is cell-based. The procedure: as §2, §3, §4
Another assay has as its system A375. Briefly: Cell viability assay (CellTiter-Glo). In kind it is cell-based. The settings on record: Homo sapiens, A-375, 120 h; A375, 5 days. Here is the method:
as §2, §3, §4

For another assay, the system named is HCT116. Briefly: Cell viability assay (CellTiter-Glo). The assay is classed as cell-based. The settings on record: Homo sapiens, HCT-116, 120 h; HCT116, 5 days. Here is the method: as §2, §3, §4
In a further assay the test system is Calu-1. As to the kind of experiment: Cell viability assay (CellTiter-Glo). The settings on record: Homo sapiens, 120 h; Calu-1, 5 days. In kind it is cell-based. The procedure: (§5) Calu-1, MDA-MB-453 or MIA PaCa-2 cancer cells were treated with Palbociclib or selected heterobifunctional compounds for 5 days at indicated concentrations following a 2-fold serial dilution.
as §2, §3, §4

A further assay deals with MDAMB-453. As to the kind of experiment: Cell viability assay (CellTiter-Glo). The settings on record: Homo sapiens, MDA-MB-453, 120 h; MDAMB-453, 5 days. The assay is classed as cell-based. The procedure:
as §5, §2, §3, §4

Another assay concerns MIA PaCa-2. Briefly: Cell viability assay (CellTiter-Glo). In kind it is cell-based. The settings on record: Homo sapiens, 120 h; MIA PaCa-2, 5 days. The procedure:
as §5, §2, §3, §4

The mark [3] stands for this setting: indicated concentrations, 8 hours, immunoblot.
[4] abbreviates: DDB1 binding moieties with linkers and/or target protein binding moiety, read-out: Binding (Kd).
Where [5] appears, read: steady state affinity model, 25° C., read-out: Binding (DDB1 binder activities, Kd).

Chain of Human DDB1 (Q16531 whole entry): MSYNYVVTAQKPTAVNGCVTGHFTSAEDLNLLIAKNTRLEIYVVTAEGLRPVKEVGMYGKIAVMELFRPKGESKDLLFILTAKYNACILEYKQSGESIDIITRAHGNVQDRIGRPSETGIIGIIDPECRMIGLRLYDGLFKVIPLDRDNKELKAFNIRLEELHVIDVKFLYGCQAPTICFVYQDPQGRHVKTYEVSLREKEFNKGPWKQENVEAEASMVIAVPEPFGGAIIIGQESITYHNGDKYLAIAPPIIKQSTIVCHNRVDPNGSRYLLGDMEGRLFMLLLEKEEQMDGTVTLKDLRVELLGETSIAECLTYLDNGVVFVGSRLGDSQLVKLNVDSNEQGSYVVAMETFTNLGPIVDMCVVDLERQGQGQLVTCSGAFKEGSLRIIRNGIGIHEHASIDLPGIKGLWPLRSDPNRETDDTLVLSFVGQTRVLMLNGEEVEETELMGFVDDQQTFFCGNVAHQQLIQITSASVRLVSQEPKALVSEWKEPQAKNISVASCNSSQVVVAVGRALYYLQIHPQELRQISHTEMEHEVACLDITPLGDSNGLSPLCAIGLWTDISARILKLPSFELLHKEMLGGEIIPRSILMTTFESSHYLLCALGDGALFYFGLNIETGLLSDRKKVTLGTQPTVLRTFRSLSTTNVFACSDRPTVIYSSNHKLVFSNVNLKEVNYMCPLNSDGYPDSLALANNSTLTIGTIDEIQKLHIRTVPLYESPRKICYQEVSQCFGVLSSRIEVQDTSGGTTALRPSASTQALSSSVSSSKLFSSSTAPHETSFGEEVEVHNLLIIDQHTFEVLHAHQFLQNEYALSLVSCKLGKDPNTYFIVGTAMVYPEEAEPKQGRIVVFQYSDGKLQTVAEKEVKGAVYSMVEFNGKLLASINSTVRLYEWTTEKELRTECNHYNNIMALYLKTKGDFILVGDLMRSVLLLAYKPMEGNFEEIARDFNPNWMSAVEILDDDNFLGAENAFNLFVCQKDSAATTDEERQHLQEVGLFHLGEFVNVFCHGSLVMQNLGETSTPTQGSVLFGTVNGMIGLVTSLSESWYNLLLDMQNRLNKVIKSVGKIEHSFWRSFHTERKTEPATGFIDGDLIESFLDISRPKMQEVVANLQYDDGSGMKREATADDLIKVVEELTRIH

By pKd is commonly meant −log10 of the Kd, conventionally taken in molar units. On to `CC(=O)Nc1cc(NCCCCNC(=O)CN2CCC(n3nc(N4CCCc5cc(-c6cnn(C)c6)c(C(F)F)cc54)c4c3CCN(C(C)=O)C4)CC2)ccc1C(=O)Nc1ccc([N+](=O)[O-])s1` [D-13, 2-Acetamido-4-((4-(2-(4-(5-acetyl-3-(7-(difluoromethyl)-6-(1-methyl-1H-pyrazol-4-yl)-3,4-dihydroquinolin-1 (2H)-yl)-4,5,6,7-tetrahydro-1H-pyrazolo[4,3-c]pyridin-1-yl)piperidin-1-yl)acetamido)butyl)amino)-N-(5-nitrothiophen-2-yl)benzamide], for which, on CBP (500 nM, time course), the “time at which significant degradation of CBP was detected” value lay within 2 to 4 h. Also, the CBP protein levels result at CBP (setting [3]) is “significantly decreased in a concentration-dependent manner”. At P300 [1], the “compound-induced degradation under co-administration of MG-132 or bortezomib (BTZ), or MLN4924” value is on record as “compromised” and the “compound-mediated degradation under co-administration with excess DDB1 ligand BL-11” value is on record as “partially neutralized”. Also, the pKd on Human DDB1 (setting [4]) is 4.00 to 4.70. Also, the “time at which significant degradation of P300 was detected” value on P300 [2] (500 nM, time course) lay in the range of 2 to 4 h. For the same compound, the P300 protein levels result at P300 [2] (setting [3]) was “significantly decreased in a concentration-dependent manner”.

Regarding `CC(=O)Nc1cc(NCCCCN)ccc1C(=O)Nc1nc(C)c([N+](=O)[O-])s1` [BL-11, 2-Acetamido-4-((4-aminobutyl)amino)-N-(4-methyl-5-nitrothiazol-2-yl)benzamide], the CDK4 protein levels result on CDK4 was “didn't have a significant effect”. Moreover, the pKd at Human DDB1 (setting [4]) is 4.00 to 4.70.

What is called pIC50 is −log10 of the IC50, conventionally taken in molar units. A lower pIC50 goes with a high IC50. On to `CC(=O)c1c(C)c2cnc(Nc3ccc(N4CCNCC4)cn3)nc2n(C2CCCC2)c1=O` [palbociclib, reference compound], for which the CDK4 protein levels result on CDK4 is recorded as “didn't have a significant effect”. Further, the pIC50 is 5.00 to 5.70 in the assay with Hs 578T; less than 5.00 in the assay with MDAMB-468; 5.00 to 5.70 with SK-MEL-28; less than 5.00 in the assay with SK-N-SH; less than 5.00 with HCC1937; less than 5.00 with NCI-H358. The negative-log IC50 (pIC50) in the assay with HCC827 was less than 5.00; in the assay on BT-549, less than 5.00; in the assay on A375, 5.00 to 5.70; with HCT116 it was less than 5.00; in the assay with Calu-1, less than 5.00; in the assay with MDAMB-453, less than 5.00. This compound also had a pIC50 with MIA PaCa-2 of 5.00 to 5.70.

As for `CC(=O)Nc1cc(C(=O)NCCOCCOCCOCCN)ccc1C(=O)Nc1nc(C)c([N+](=O)[O-])s1` [BL-5, 2-acetamido-N^4-(2-(2-(2-(2-aminoethoxy)ethoxy)ethoxy)ethyl)-N^1-(4-methyl-5-nitrothiazol-2-yl)terephthalamide], the pKd on Human DDB1 (setting [4]) is 4.00 to 4.70.

For `CC(=O)Nc1cc(NCCCCCCCN)ccc1C(=O)Nc1nc(C)c([N+](=O)[O-])s1` [BL-7, 2-Acetamido-4-((7-aminoheptyl)amino)-N-(4-methyl-5-nitrothiazol-2-yl)benzamide], the negative logarithm of the Kd (pKd) at Human DDB1 (setting [4]) was 4.00 to 4.70.

Turning to `CCCCNc1ccc(C(=O)Nc2nc(C)c([N+](=O)[O-])s2)c(-c2ccccc2)c1` [B-111, 5-(Butylamino)-N-(4-methyl-5-nitrothiazol-2-yl)-[1,1′-biphenyl]-2-carboxamide], the pKd at Human DDB1 (setting [5]) is 4.00 to 4.70.

Regarding `CCCNC(=O)c1cccc(C(=O)Nc2ncc([N+](=O)[O-])s2)c1OC(C)=O` [B-11, 2-((5-Nitrothiazol-2-yl)carbamoyl)-6-(propylcarbamoyl)phenyl acetate], the pKd on Human DDB1 (setting [5]) was 4.00 to 4.70.

Turning to `CCCCNc1ccc(C(=O)N(C)c2ncc([N+](=O)[O-])s2)c(OCC)c1` [B-107, 4-(Butylamino)-2-ethoxy-N-methyl-N-(5-nitrothiazol-2-yl)benzamide], the pKd on Human DDB1 (setting [5]) was 4.00 to 4.70.

Turning to `Cc1cc(Cl)ccc1C(=O)Nc1ncc([N+](=O)[O-])s1` [B-150, 4-chloro-2-methyl-N-(5-nitrothiazol-2-yl)benzamide], at Human DDB1 (setting [5]), the pKd is 4.00 to 4.70.

Consider `Cc1nc(NC(=O)c2ccccc2NC(=O)CCOCCOCCOCCN)sc1[N+](=O)[O-]` [BL-2, 2-(3-(2-(2-(2-Aminoethoxy)ethoxy)ethoxy)propanamido)-N-(4-methyl-5-nitrothiazol-2-yl)benzamide], for which, at Human DDB1 (setting [4]), the pKd is 4.00 to 4.70.

For `COC(=O)Nc1ccccc1C(=O)Nc1ncc([N+](=O)[O-])s1` [B-65, methyl (2-((5-nitrothiazol-2-yl)carbamoyl)phenyl)carbamate], on Human DDB1 (setting [5]), the pKd is 4.00 to 4.70.

With `CC(=O)Nc1cc(NCCOCCOCCOCCOCCNC(=O)CN2CCN(c3cccc(-c4cnc5ccc(N6CCC[C@@H]6c6cccc(F)c6)nn45)n3)CC2)ccc1C(=O)Nc1nc(C)c([N+](=O)[O-])s1` [D-23, (R)-2-Acetamido-4-((1-(4-(6-(6-(2-(3-fluorophenyl)pyrrolidin-1-yl)imidazo[1,2-b]pyridazin-3-yl)pyridin-2-yl)piperazin-1-yl)-2-oxo-6,9,12,15-tetraoxa-3-azaheptadecan-17-yl)amino)-N-(4-methyl-5-nitrothiazol-2-yl)benzamide], the negative logarithm of the Kd (pKd) on Human DDB1 (setting [4]) is 4.00 to 4.70.

For the compound `CCNc1cccc(OCC)c1C(=O)Nc1ncc([N+](=O)[O-])s1` [B-168, 2-Ethoxy-6-(ethylamino)-N-(5-nitrothiazol-2-yl)benzamide], the pKd at Human DDB1 (setting [5]) is less than 4.00.

As for `CCOc1ccccc1C(=O)N(C)c1ncc([N+](=O)[O-])s1` [B-102, 2-Ethoxy-N-methyl-N-(5-nitrothiazol-2-yl)benzamide], on Human DDB1 (setting [5]), the pKd is greater than 4.70.

For `CNC(=O)c1ccccc1C(=O)Nc1ncc([N+](=O)[O-])s1` [B-5, N^1-Methyl-N^2-(5-nitrothiazol-2-yl)phthalamide], the pKd on Human DDB1 (setting [5]) is less than 4.00.
